Measurements taken from US20110059482A1, “Sampling Kit” (priority 2008, published 2011).

Assays:
MSSA = conditions: according to the referens group for questions related to antibiotic (RAF); cited from earlier work
[1] = Storage stability / shelf life of antibiotics, tablet and Herogel components; type: physicochemical; conditions: in liquid form, at about 8° C. (refrigerator)
Description: Background: Herogel is a selective growth medium comprising aztreonam and colistin to inhibit the growth of Enterobacteriaceae. Cefoxitin is added to the medium in order to inhibit the growth of MSSA (Methicillin Sensitive Staphylococcus Aureus). Cefoxitin has a short shelf life if it is added to the medium upon manufacturing of the medium and together with other antibiotics. Tests performed at Karolinska University Hospital Laboratory have shown that the activity of cefoxitin in liquid form is reduced after 14 days at about 8° C. (i.e. in a refrigerator) and that aztreonam and colistin if they are added to the growth medium are active for at least 4 months if stored at a temperature of about 8° C. (i.e. in a refrigerator). In order to prolong the shelf life of the Herogel, cefoxitin is incorporated in the tablet in Batch 1. The hypothesis is that the shelf life of the herogel will be prolonged if the tablet is added immediately after the sampling. The shelf life of the tablet is estimated to about 12 months in room temperature. The other components of the Herogel medium have a documented shelf life of at least 6 months upon storage in a refrigerator.

- storage time after which the activity is reduced [1]: 14 days
SMILES: CO[C@@]1(NC(=O)Cc2cccs2)C(=O)N2C(C(=O)O)=C(COC(N)=O)CS[C@@H]21 [cefoxitin]
- minimal inhibitory concentration (MIC) for MSSA (MSSA): 4 µg/mL
